SMILES strings stand for the structures. A value given as a limit tells only on which side of the number the result lay.

In this test the target is Protease (Human immunodeficiency virus 1, UniProt Q9YQ12). Put plainly: Inhibition of HIV1 protease.
Protease, sequence (Q9YQ12 whole entry): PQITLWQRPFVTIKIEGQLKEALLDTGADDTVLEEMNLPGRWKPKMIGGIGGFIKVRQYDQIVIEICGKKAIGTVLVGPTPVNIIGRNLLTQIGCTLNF
Usually IC50 stands for the midpoint of a concentration-inhibition curve. A high value points to lower potency. For `C=C1[C@@H](C)[C@H]2[C@H](Cc3ccccc3)NC(=O)[C@]23[C@H](OC(C)=O)/C=C/[C@@H](C)C[C@@H](CO)C/C=C/[C@H]3[C@@H]1O`, the IC50 is 22 µM. The figure for `C=C1[C@@H](C)[C@H]2[C@H](Cc3cccc(O)c3)NC(=O)[C@]23[C@H](OC(C)=O)/C=C/[C@@H](C)C[C@@H](CO)C/C=C/[C@H]3[C@@H]1O` is 38 µM.

Take `C=C1[C@@H](C)[C@H]2[C@H](Cc3ccccc3)NC(=O)[C@]23[C@H](OC(C)=O)/C=C/[C@@H](C)C[C@@](O)(CO)C/C=C/[C@H]3[C@@H]1O`: the IC50 is 45 µM. In the case of `C=C1[C@@H](C)[C@H]2[C@H](Cc3cccc(O)c3)NC(=O)[C@]23[C@H](OC(C)=O)/C=C/[C@@H](C)C[C@@](O)(CO)C/C=C/[C@H]3[C@@H]1O`, the IC50 was > 50 µM.

With `C=C1[C@@H](C)[C@H]2[C@H](Cc3ccc(O)c(O)c3)NC(=O)[C@]23[C@H](OC(C)=O)/C=C/[C@@H](C)C[C@@H](CO)C/C=C/[C@H]3[C@@H]1O`, the IC50 is > 50 µM. In the case of `C=C1[C@@H](C)[C@H]2[C@H](Cc3ccc(O)cc3)NC(=O)[C@]23[C@H](OC(C)=O)/C=C/[C@@H](C)C[C@@H](CO)C/C=C/[C@H]3[C@@H]1O`, half-maximal inhibition (IC50) was put at 35 µM.

The compound `C=C1[C@@H](C)[C@H]2[C@H](Cc3ccccc3)NC(=O)[C@]23[C@H](OC(C)=O)/C=C/[C@@H](C)C[C@@H](C)C/C=C/[C@H]3[C@@H]1O` gave an IC50 of 3 µM.

For the origin of these results see ChEMBL document CHEMBL1147361, “Microbial transformation of L-696,474, a novel cytochalasin as an inhibitor of HIV-1 protease” (J Nat Prod, 1993).
